This test has as its target T1, PASK (Invitrogen) (Homo sapiens, UniProt Q96RG2).
T1 construct: IC50 Kinase Domain; purchased Invitrogen
The test is described as follows: PAS Kinase FRET Assay. The class given is biochemical. Conditions: PAS kinase TR-FRET assay (665 nm/615 nm); read-out: IC50 Kinase Domain. An excerpt: Biochemical Assay for hPASK Activity
The aim of the FRET assay is to determine the inhibition potential of test compounds on targeted kinase. This assay platform provides a homogenous screening method for measuring kinase activity by quantitating the amount of phospho-substrate in solution following a kinase reaction.
In the presence of kinase and ATP, the Ulight-peptide is phosphorylated and captured by an anti-phospho-substrate antibody, which brings the Eu chelate donor and Ulight acceptor dyes into close proximity. Upon excitation at 340 nm, the Eu chelate transfers its energy to the Ulight dye, resulting in a fluorescent light emission at 665 nm.
Titration of kinase at 1 mM ATP was achieved via the following protocol. After making serial three-fold dilutions of PASK (Invitrogen) in reaction buffer across the plate; 5 μl of kinase dilution and 5 μl substrate/ATP mix were added to the wells of the white Optiplate-384 (PerkinElmer). The contents of the plate were and incubated at RT for 1 h. The reaction was stopped by adding 5 μl of stop solution to each test well followed by mixing and incubation at RT for 10 minutes. 5 μl of detection mix (detection antibody diluted in detection buffer) was added; the contents of the plate were mixed and then incubated in the dark for 1 hour at RT. The signal was recorded at TR-FRET mode (665 nm/615 nm). The results were graphed to calculate the EC50.
Titration of ATP at the EC50 concentration of kinase to determine ATP Km,app. was performed using the following method. After making serial dilutions of ATP (Invitrogen), 5 μl of ATP dilution and 5 μl substrate/kinase mix were added to the wells of the white Optiplate-384 (PerkinElmer). The contents of the plate were and incubated at RT for 1 h. The reaction was stopped by adding 5 μl of stop solution to each test well followed by mixing and incubation at RT for 10 minutes. 5 μl of detection mix (detection antibody diluted in detection buffer) was added; the contents of the plate were mixed and then incubated in the dark for 1 hour at RT. The signal was recorded at TR-FRET mode (665 nm/615 nm). The results were graphed to calculate the EC50 as the ATP Km,app.
Compound screening was done via the following method. 10 mM stock solution of test compound in DMSO was prepared by dissolving test compound in DMSO at RT for 1 hour, and then sonicating at 100% output for 8 minutes. If compound is not soluble under this condition, it was diluted to 3 mM. Kinase reaction buffer was prepared containing 10 mM MgCl2, 50 mM HEPES, 1 mM EGTA, 0.01% TWEEN-20, 2 mM DTT. Serial dilutions of the test compounds were prepared at 4× final assay concentrations using Freedom EVO200® dispensing system as follows: 12×10^−5 M, 4×10^−5 M, 1.33×10^−5 M, 4.44×10^−6 M, 1.48×10^−6 M, 4.92×10^−7 M, 1.65×10^−7 M, […], 1.82×10^−8M, 6.09×10^−9, 2.03×10^−9 M. Test compounds (2.5 μl at 4× the final assay concentration) was added to wells using Freedom EVO200® dispensing system. As a positive control, 2.5 μl of positive compound was added to assay wells, and 2.5 μl of DMSO to assay wells as vehicle control. Kinase solution was prepared in reaction buffer at 2× final assay concentration. Kinase solution (5 μl) was added to each well of the assay plate. The substrate and ATP solution was prepared in kinase reaction buffer at 4× final assay concentration. The kinase reaction was started by adding 2.5 μl of substrate+ATP mix solution to each well of the assay plate. The plate is mixed on a plate shaker; then covered and allowed to react for 2 hours in the dark at 25° C. without shaking. The reaction was stopped by adding 5 μl of stop solution to each test well followed by mixing and incubation at RT for 10 minutes in the dark. 5 μl of detection mix (detection antibody diluted in detection buffer) was added; the contents of the plate were mixed and then incubated in the dark for 1 hour at RT. The signal was recorded at TR-FRET mode (665 nm/615 nm).
For orientation: TR-FRET usually uses a lanthanide donor and a delayed reading to cut background.

Where only a bound is given, the exact number is not on record here.

T1 sequence (Q96RG2 999-1251 limits assumed): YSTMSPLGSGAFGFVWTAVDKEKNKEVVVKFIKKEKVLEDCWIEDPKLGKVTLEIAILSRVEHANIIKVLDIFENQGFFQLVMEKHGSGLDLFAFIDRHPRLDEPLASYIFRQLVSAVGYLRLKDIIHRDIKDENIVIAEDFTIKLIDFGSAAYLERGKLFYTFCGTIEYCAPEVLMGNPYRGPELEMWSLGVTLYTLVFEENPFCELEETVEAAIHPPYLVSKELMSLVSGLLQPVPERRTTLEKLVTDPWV

Usually IC50 stands for the concentration that inhibits the measured activity by half. With `CCOc1cc(-c2cc(=O)n3ncc(-c4ncc(C)o4)c3[nH]2)ccc1Cl` [Example 46, 5-(4-chloro-3-ethoxyphenyl)-3-(5-methyloxazol-2-yl)pyrazolo[1,5-a]pyrimidin-7(4H)-one], the IC50 was at most 10 µM. With `Cc1noc(-c2c(C)nn3c(=O)cc(-c4ccc(Cl)cc4)[nH]c23)n1` [Example 8, 5-(4-chlorophenyl)-2-methyl-3-(3-methyl-1,2,4-oxadiazol-5-yl)-4H,7H-pyrazolo[1,5-a]pyrimidin-7-one], the IC50 was at most 10 µM.

Turning to `Cc1csc(-c2cnn3c(=O)cc(-c4ccc5c(cnn5C)c4)[nH]c23)n1` [Example 72, 5-(1-methyl-1H-indazol-5-yl)-3-(4-methylthiazol-2-yl)pyrazolo[1,5-a]pyrimidin-7(4H)-one], the IC50 is at most 10 µM. Turning to `Cc1noc(-c2cnn3c(=O)cc(-c4ccc5c(c4)OCCO5)[nH]c23)n1` [Example 97, 5-(2,3-dihydrobenzo[b][1,4]dioxin-6-yl)-3-(3-methyl-1,2,4-oxadiazol-5-yl)pyrazolo[1,5-a]pyrimidin-7(4H)-one], the IC50 was at most 10 µM. The value for `CCn1ncc2cc(-c3cc(=O)n4ncc(-c5nc6ccccc6o5)c4[nH]3)ccc21` [Example 33, 3-(benzo[d]oxazol-2-yl)-5-(1-ethyl-1H-indazol-5-yl)pyrazolo[1,5-a]pyrimidin-7(4H)-one] was at most 10 µM; that for `Cc1noc2ccc(-c3cc(=O)n4ncc(-c5ncco5)c4[nH]3)cc12` [Example 110, 5-(3-methylbenzo[d]isoxazol-5-yl)-3-(oxazol-2-yl)pyrazolo[1,5-a]pyrimidin-7(4H)-one] was at most 10 µM.

Consider `Cc1csc(-c2cnn3c(=O)cc(-c4ccc(Cl)c(Cl)c4)[nH]c23)n1` [Example 101, 5-(3,4-dichlorophenyl)-3-(4-methylthiazol-2-yl)pyrazolo[1,5-a]pyrimidin-7(4H)-one], for which the IC50 was at most 10 µM.

In the case of `Cc1cnc(-c2cnn3c(=O)cc(-c4ccc(Cl)c(OCC(F)(F)F)c4)[nH]c23)o1` [Example 37, 5-[4-chloro-3-(2,2,2-trifluoroethoxy)phenyl]-3-(5-methyloxazol-2-yl)-4H,7H-pyrazolo[1,5-a]pyrimidin-7-one], the IC50 is at most 10 µM. `CCOc1cc(-c2cc(=O)n3ncc(-c4ccnn4C)c3[nH]2)ccc1F` [Example 78, 5-(3-ethoxy-4-fluorophenyl)-3-(1-methyl-1H-pyrazol-5-yl)pyrazolo[1,5-a]pyrimidin-7(4H)-one]: the IC50 was at most 10 µM. For the compound `CCn1ncc2cc(-c3cc(=O)n4nc(C)c(-c5nc(C)no5)c4[nH]3)ccc21` [Example 115, 5-(1-ethyl-1H-indazol-5-yl)-2-methyl-3-(3-methyl-1,2,4-oxadiazol-5-yl)-4H,7H-pyrazolo[1,5-a]pyrimidin-7-one], the IC50 is at most 10 µM. `CCn1nnc2cc(-c3cc(=O)n4ncc(-c5ncco5)c4[nH]3)ccc21` [Example 49, 5-(1-ethyl-1H-benzo[d][1,2,3]triazol-5-yl)-3-(oxazol-2-yl)pyrazolo[1,5-a]pyrimidin-7(4H)-one]: the IC50 is at most 10 µM.

Regarding `CC(C)n1ncc2cc(-c3cc(=O)n4ncc(-c5ccnn5C)c4[nH]3)ccc21` [Example 88, 5-(1-isopropyl-1H-indazol-5-yl)-3-(1-methyl-1H-pyrazol-5-yl)pyrazolo[1,5-a]pyrimidin-7(4H)-one], the half-inhibitory concentration (IC50) is at most 10 µM. Take `CCn1ncc2ccc(-c3cc(=O)n4ncc(-c5nc(C)no5)c4[nH]3)cc21` [Example 111, 5-(1-Ethyl-1H-indazol-6-yl)-3-(3-methyl-1,2,4-oxadiazol-5-yl)pyrazolo[1,5-a]pyrimidin-7(4H)-one]: the IC50 was at most 10 µM.

As to `CCn1ncc2cc(-c3cc(=O)n4ncc(-c5nc(C)cs5)c4[nH]3)ccc21` [Example 25, 5-(1-ethyl-1H-indazol-5-yl)-3-(4-methyl-1,3-thiazol-2-yl)-4H,7H-pyrazolo[1,5-a]pyrimidin-7-one], the IC50 is at most 10 µM. On to `CCn1ncc2ccc(-c3cc(=O)n4ncc(-c5ncc(C)o5)c4[nH]3)cc21` [Example 112, 5-(1-ethyl-1H-indazol-6-yl)-3-(5-methyloxazol-2-yl)pyrazolo[1,5-a]pyrimidin-7(4H)-one], for which the IC50 was at most 10 µM.

For `Cc1cnc(-c2cnn3c(=O)cc(-c4ccc(Cl)c(OC(F)(F)F)c4)[nH]c23)o1` [Example 38, 5-[4-chloro-3-(trifluoromethoxy)phenyl]-3-(5-methyloxazol-2-yl)-4H,7H-pyrazolo[1,5-a]pyrimidin-7-one], the IC50 is at most 10 µM. The value for `CCc1noc2cc(-c3cc(=O)n4ncc(-c5ncco5)c4[nH]3)ccc12` [Example 120, 5-(3-Ethylbenzo[d]isoxazol-6-yl)-3-(oxazol-2-yl)pyrazolo[1,5-a]pyrimidin-7(4H)-one] was at most 10 µM. As to `CCn1ncc2cc(-c3cc(=O)n4ncc(-c5ccnn5C)c4[nH]3)ccc21` [Example 53, 5-(1-ethyl-1H-indazol-5-yl)-3-(1-methyl-1H-pyrazol-5-yl)pyrazolo[1,5-a]pyrimidin-7(4H)-one], the IC50 is at most 10 µM. The figure for `Cc1noc(-c2c(O)nn3c(=O)cc(-c4ccc(Cl)cc4)[nH]c23)n1` [Example 9, 5-(4-chlorophenyl)-2-hydroxy-3-(3-methyl-1,2,4-oxadiazol-5-yl)-4H,7H-pyrazolo[1,5-a]pyrimidin-7-one] is at most 10 µM; for `CCc1noc2cc(-c3cc(=O)n4ncc(-c5ncc(C)o5)c4[nH]3)ccc12` [Example 121, 5-(3-ethylbenzo[d]isoxazol-6-yl)-3-(5-methyloxazol-2-yl)pyrazolo[1,5-a]pyrimidin-7(4H)-one] it is at most 10 µM.

For `CC(C)Oc1cc(-c2cc(=O)n3ncc(-c4ccnn4C)c3[nH]2)ccc1Cl` [Example 76, 5-(4-chloro-3-isopropoxyphenyl)-3-(1-methyl-1H-pyrazol-5-yl)pyrazolo[1,5-a]pyrimidin-7(4H)-one], the IC50 was at most 10 µM. Consider `CCn1nc(C)c2cc(-c3cc(=O)n4ncc(-c5ncc(C)o5)c4[nH]3)ccc21` [Example 105, 5-(1-Ethyl-3-methyl-1H-indazol-5-yl)-3-(5-methyloxazol-2-yl)pyrazolo[1,5-a]pyrimidin-7(4H)-one], for which the IC50 is at most 10 µM. On to `CCc1nn2c(=O)cc(-c3ccc(Cl)c(OC)c3)[nH]c2c1-c1nc(C)no1` [Example 117, 5-(4-chloro-3-methoxyphenyl)-2-ethyl-3-(3-methyl-1,2,4-oxadiazol-5-yl)-4H,7H-pyrazolo[1,5-a]pyrimidin-7-one], for which the IC50 is at most 10 µM.

In the case of `CCOc1cc(-c2cc(=O)n3ncc(-c4ncc(CC)o4)c3[nH]2)ccc1Cl` [Example 35, 5-(4-chloro-3-ethoxyphenyl)-3-(5-ethyloxazol-2-yl)-4H,7H-pyrazolo[1,5-a]pyrimidin-7-one], the IC50 is at most 10 µM. On to `CCOc1cc(-c2cc(=O)n3ncc(-c4ncco4)c3[nH]2)ccc1Cl` [Example 34, 5-(4-chloro-3-ethoxyphenyl)-3-(oxazol-2-yl)-4H,7H-pyrazolo[1,5-a]pyrimidin-7-one], for which the concentration for half-maximal inhibition (IC50) was at most 10 µM.

`Cc1cnc(-c2cnn3c(=O)cc(-c4ccc5c(cnn5C)c4)[nH]c23)o1` [Example 107, 5-(1-Methyl-1H-indazol-5-yl)-3-(5-methyloxazol-2-yl)pyrazolo[1,5-a]pyrimidin-7(4H)-one]: the IC50 was at most 10 µM. On to `Cc1noc(-c2cnn3c(=O)cc(-c4ccc5occc5c4)[nH]c23)n1` [Example 62, 5-(benzofuran-5-yl)-3-(3-methyl-1,2,4-oxadiazol-5-yl)-4H,7H-pyrazolo[1,5-a]pyrimidin-7-one], for which the IC50 was at most 10 µM.

The values are drawn from patent US10392389B2, “Heterocyclic compounds for the inhibition of PASK” (BioEnergenix, LLC, priority 2012, dated 2019).
